Reference: patent US9181260B2, “Crystalline form of sitagliptin sulfate” (MOEHS IBERICA S.L., priority 2012, dated 2015)
Structures can show the parent of a compound that is named as a salt. Where two headings read alike, the source gives them in different places. One block for each compound: values may come before it.

Assays:
Assay type in all cases: physicochemical
[1] = Water content determined by thermal gravimetric analysis (TGA)
Method: TGA analyses were performed using a Mettler/Toledo TGA/SDTA851e thermobalance. Parameters: heating range from 30 to 300° C. with a 10° C./min ramp and a 50 ml/min dry N2 flow.

[2] = Accelerated stability study (40° C.±2° C., 75%±5% RH), water content by Karl-Fisher and XRPD; details: for Water content: Karl-Fisher
Method: Water Content (Karl-Fisher Method) The analysis is performed in a Mettler Toledo W30. It is determined in 0.2 g of sample using Hydranal medium K as solvent and Hydranal composite 5K as titrant. Accelerated stability study of the M form of sitagliptin sulfate was performed under the following conditions: temperature of 40° C.±2° C. and relative humidity (RH) of 75%±5%. The water content of the sample was determined at the beginning of the study, at 3 months and at 6 months, by means of Karl-Fisher. The crystalline form of sitagliptin sulfate after 6 months was analyzed by means of X-ray diffraction.

[3] = Hygroscopicity study, European Pharmacopeia Ed. 6.0 Section 5.11 (degree of hydration at 80% and 97% RH, 25° C.); details: for Higroscopicity RH 80% / Higroscopicity RH 97%: water content by weight difference
Method: International application WO 2009/085990 A2 describes the production of an anhydrous crystalline form of sitagliptin sulfate salt and its characterization by means of DSC (Differential Scanning calorimetry), TGA (Thermal Gravimetric Analysis) and XRPD (X-Ray Powder Diffraction). However and in the hands of the inventors of the present application, said crystalline form is hygroscopic under the conditions of the European Pharmacopeia Ed. 6.0 Section 5.11 (24 hours at 80% RH and 25° C.), readily reaching a water proportion corresponding to a dihydrate form. […] A stability study of the M form of sitagliptin sulfate was performed under conditions of the European Pharmacopeia Ed. 6.0 Section 5.11, i.e., the degree of hydration was measured at 80% relative humidity (RH) at a temperature of 25° C. Additionally, the degree of hydration was also measured at 97% relative humidity (RH) at a temperature of 25° C. The results are shown in Table 1, wherein the higroscopicity (expressed as the water content by means of weight difference, following the procedure described in European Pharmacopeia Ed. 6.0 Section 5.11) of samples of 1 g of sitagliptin sulfate polymorph M of the present invention after storage at 1 day, 3 days, 7 days, 14 days and 21 days at 80% RH and 97% RH, respectively. […] 6.0 Section 5.11, i.e., the degree of hydration is less than 0.2%. The crystalline form of sitagliptin sulfate after 21 days at a relative humidity of 80% and 97%, respectively, were analyzed by means of X-ray diffraction.

[4] = Crystalline form after grinding
Method: 100.0 g (245.5 mmoles) of sitagliptin base were dissolved at 20-22° C. in a mixture of 750 ml of absolute ethanol and 120 ml of water. A previously prepared solution of 98.1% H2SO4 ([…], 240.9 mmoles) in ethanol (760 ml) was slowly added to said solution, maintaining the temperature between 20-25° C. When approximately ⅔ of the total volume of the acid solution had been added, the addition was stopped and 1.0 g (1.978 mmoles) of crystalline form M of sitagliptin sulfate obtained by means of any of the processes described in Examples 1 and 3-5 was added to the reaction mixture. The presence of a white precipitate that remains undissolved was immediately noticed. The addition of the acid solution was continued and once this ended, the mixture obtained was maintained at a temperature of 20-25° C. for 4 hours. The solid obtained was filtered and washed in the filter with absolute ethanol (2×100 ml). The wet product was dried in a vacuum oven at 40° C. for 22 hours to yield 97.1 g (192.1 mmoles) of a white crystalline solid (77.6%). XRPDs both of the wet product (FIG. 3) and of the dry product (FIG. 2) which correspond with form M of sitagliptin sulfate were performed. […] (FIG. 8). The water content determined by TGA (FIG. 13) is 0.02%.

[5] = 80% RH and 97% RH, 25° C., up to 21 days

- water content determined by TGA [1]: less than 0.05%
- water content determined by TGA ([1]; listed as Example 1): 0.02%
- water content determined by TGA ([1]; listed as Example 2): 0.02%
- water content determined by TGA ([1]; listed as Example 3): 0.03%
- water content determined by TGA ([1]; listed as Example 4): 0.01%
- water content determined by TGA ([1]; listed as Example 5): 0.004%
- Water content ([2]; 3 months at 40° C.±2° C., 75%±5% RH): 0.09%
- Water content ([2]; 6 months at 40° C.±2° C., 75%±5% RH): 0.01%
- Water content ([2]; Initial): 0.09%
- Higroscopicity RH 80% ([3]; 25° C., 80% RH, 1 day): 0.07%
- Higroscopicity RH 80% ([3]; 25° C., 80% RH, 3 days): 0.10%
- Higroscopicity RH 80% ([3]; 25° C., 80% RH, 7 days): 0.12%
- Higroscopicity RH 80% ([3]; 25° C., 80% RH, 14 days): 0.10%
- Higroscopicity RH 80% ([3]; 25° C., 80% RH, 21 days): 0.07%
- Higroscopicity RH 97% ([3]; 25° C., 97% RH, 1 day): 0.05%
- Higroscopicity RH 97% ([3]; 25° C., 97% RH, 3 days): 0.08%
- Higroscopicity RH 97% ([3]; 25° C., 97% RH, 7 days): 0.06%
- Higroscopicity RH 97% ([3]; 25° C., 97% RH, 14 days): 0.06%
- Higroscopicity RH 97% ([3]; 25° C., 97% RH, 21 days): 0.07%
- degree of hydration [3, 5]: less than 0.2%
- hygroscopicity (in words) [3, 5]: non-hygroscopic
- degree of hydration ([3]; 80% relative humidity, 25° C.): less than 0.2%
- hygroscopicity (in words) ([3]; 80% relative humidity, 25° C., Ph. Eur. 6.0 Section 5.11): non-hygroscopic
SMILES: N[C@@H](CC(=O)N1CCn2c(nnc2C(F)(F)F)C1)Cc1cc(F)c(F)cc1F [form M, addition salt of sitagliptin with sulfuric acid (1:1)]
- crystalline form by XRPD after storage ([2]; 6 months, 40° C.±2° C., 75%±5% RH): corresponding to form M of sitagliptin sulfate
- crystalline form by XRPD after storage ([3]; 21 days, 25° C., 80% RH): corresponding to form M of sitagliptin sulfate
- crystalline form by XRPD after storage ([3]; 21 days, 25° C., 97% RH): corresponding to form M of sitagliptin sulfate
- crystalline form of the ground product [4]: still the crystalline form of sitagliptin sulfate object of the present invention

- hygroscopicity (in words) ([3]; 24 hours at 80% RH and 25° C., in the hands of the inventors): hygroscopic
SMILES: N[C@@H](CC(=O)N1CCn2c(nnc2C(F)(F)F)C1)Cc1cc(F)c(F)cc1F.O=S(=O)(O)O [reference compound]
